# Tests used:
# Type in all cases: cell-based, human
# [1] = system: expanded cord blood CD34+ cells, erythroid lineage (CD71, CD235a); experiment: Erythroid Differentiation Culture after Expansion Culture (Example 38); conditions: for cells with markers of erythrocyte differentiation (CD71 and/or CD235a), of total cells: seven days Erythroid Differentiation Culture; for cells with markers of erythrocyte differentiation (CD71 and/or CD235a), of total cells / cells positive for CD235a (maturing erythrocyte differentiation): average
# Procedure: (§1) At days 21 and 63, CD34+ enriched cells were placed into Differentiation Cultures, described below.
# (§2) Differentiation cultures were initiated using Erythroid, Myeloid (granulocyte and monocyte), and Megakaryocyte HemaTox kits from STEMCELL technologies following the manufacturer's instructions. In brief, lineage media was prepared by adding cytokine cocktails for erythrocyte (SCF, IL-3, and EPO), myeloid (i.e. mixed granulocyte/monocyte, SCF, TPO, G-CSF, and GM-CSF) or megakaryocyte (SCF, IL-6, IL-9 and TPO) lineage differentiation to their respective kits' media, then adding approximately 30-100 CD34+ cells for erythroid or myeloid cultures, or 300-1000 CD34+ cells for megakaryoid cultures. Exact cell numbers plated were quantified for later analysis. All incubations for Differentiation Culture took place at 3% oxygen (controlled by nitrogen) and 5% CO2.
# (§3) Following seven days of erythroid or myeloid cultures, or ten days for megakaryoid cultures, differentiated cell output was quantified using flow cytometry. Erythroid output was quantified using anti-CD71 and anti-CD235a antibodies, and megakaryocyte lineage output was quantified using anti-CD41 and anti-CD42b antibodies. Granulocyte and monocyte lineage outputs were assessed in tandem, using CD14 and CD15 antibodies, with granulocyte lineage cells being CD15+/CD14−, and monocyte lineage cells being CD14+/CD15−.
# A number of quantities were calculated to assess the effect of expansion of CD34+ cells in the +Formula I Condition on the output of lineage differentiated cells. “Per-Assayed-CD34+ Cell Output” describes the output of differentiated cells per CD34+ cell placed into Differentiation Culture, and is calculated by dividing the total number of lineage-positive cells by the input CD34+ cell number quantified at Differentiation Culture initiation at day 1, 21, or 63. “Per-expanded-day-1-CD34+ cell output” describes the number of differentiated cells of a given lineage that may be produced from a single CD34+ cell following both Expansion Cell Culture (if expanded) followed by Differentiation Culture, and is calculated by multiplying Per-Assayed-CD34+ Cell Output by the fold expansion of CD34+ cells from day 1 to the day of analysis, either day 21 or day 63. “Per-banked-CBU lineage output” describes the number of differentiated cells of a given lineage that may be produced using the CD34+ cells from a full cord blood unit, and is calculated by multiplying the per-expanded-day-1-CD34+ cell output by 2×10^6, a conservative estimate the number of CD34+ cells in an average cord held in a public cord blood bank (Sun, J., Allison, J., McLaughlin, C., Sledge, L., Waters-Pick, B., Wease, S., and Kurtzberg, J. (2010). Differences in quality between privately and publicly banked umbilical cord blood units: a pilot study of autologous cord blood infusion in children with acquired neurologic disorders. Transfusion (Paris) 50, 1980-1987). This per-banked-CBU lineage output provides the ability to gauge the number of therapeutic units that may be derived from a single cord blood unit available as input to the manufacturing of a therapeutic product, and enables comparison to current state-of-the-art methods. Where relevant therapeutic dose benchmarks were available, this per-banked-CBU lineage output was used to calculate the number of therapeutic units that may be prepared from a single banked CBU unit. We calculated therapeutic units for granulocyte precursors, using 50 billion (5×10^10) cells per dose as a conservative benchmark (Valentini, C. G., Farina, F., Pagano, L., and Teofili, L. (2017). Granulocyte Transfusions: A Critical Reappraisal. Biol. Blood Marrow Transplant. 23, 2034-2041). […]
# [2] = system: expanded cord blood CD34+ cells, megakaryocyte lineage (CD41, CD42b); experiment: Megakaryocyte Differentiation Culture after Expansion Culture (Example 38)
# Procedure: as §1, §2, §3
# A number of quantities were calculated to assess the effect of expansion of CD34+ cells in the +Formula I Condition on the output of lineage differentiated cells. “Per-Assayed-CD34+ Cell Output” describes the output of differentiated cells per CD34+ cell placed into Differentiation Culture, and is calculated by dividing the total number of lineage-positive cells by the input CD34+ cell number quantified at Differentiation Culture initiation at day 1, 21, or 63. […]
# CD56+ NK lineage cells = experiment: NK-cell Maturation Culture (Example 41); conditions: for % Mature cells: CD3−/CD19−/CD56+ of Live / % Mature cells: CD16+ of Live/CD3−/CD19−/CD56+ / % Mature cells: CD94+ of Live/CD3−/CD19−/CD56+ / % Mature cells: CD161+ of Live/CD3−/CD19−: NK, +Formula I-expanded CD34+ cells
# Procedure: Following 14 days in Lymphoid Progenitor Differentiation Cultures, cells were placed into T- and NK-cell Maturation Cultures.
# For NK-cell Maturation Cultures, cells from L Diff Cultures were plated at 25,000 cells per well in TC-treated 48-well plates with 250 μl of NK-cell Differentiation Medium, comprising StemSpan SFEM II medium with StemSpan NK Cell Differentiation Supplement and UM171 (STEMCELL Technologies), prepared according to the manufacturer's instructions, except substituting UM171 at 100 nM for the 1 μM UM729 called for in the protocol.
# Following 4 days of culture, NK- and T-cell Maturation Cultures' medias were replenished by adding an equal volume of the same culture media added on day 14. At days 21 and 25 of NK- or T-cell Maturation Cultures, half-media changes were performed by removing half of the total volume of media without disturbing cells and adding media freshly prepared as on day 14.
# Following 7 and 14 days in NK- and T-cell Maturation Culture (21 and 28 days from initiation of Lymphoid Differentiation Culture, respectively), cells were stained with antibodies to CD56, CD3, CD161, CD94, and CD16 and analyzed via flow cytometry to quantify T and NK lineage phenotypes.
# “Adult Peripheral Blood Unit Equivalents per CBU” was calculated by multiplying each condition's Scaled Output (per CD34+ cell) by 10^6, a conservative estimate of the number of CD34+ cells in an umbilical cord blood unit, then dividing that quantity by the number of CD56+, CD3+ or CD8+ cells typically found in a unit of donated adult peripheral blood: 5×10^7 (CD56+), 10^9 (CD3+) or 3×10^8, according to Invitrogen (https://assets.thermofisher.com/TFS-Assets/LSG/brochures/I-076357%20cell%20count%20table%20topp_WEB.pdf).
smiles,measurement,setting,value
CC(C)(C)C(=O)Nc1ccc2c(c1)C(O)c1ccccc1-2 (stereo not shown) [Compound 1.010],"fold increase of per-expanded-day-1-CD34+ cell output, erythroid lineage, over uncultured cells","[1]; +Formula I expansion (Compound 1.010 8 μM) to day 21, then 7 days differentiation",301 fold
same,"fold increase of per-expanded-day-1-CD34+ cell output, erythroid lineage, over uncultured cells","[1]; +Formula I expansion to day 63, then 7 days differentiation","91,000 fold"
same,CD71−/CD235a+ cells (mature erythrocytes),"[1]; expanded 21 or 63 days in Formula I condition, day seven of Erythroid Differentiation Culture",No CD71−/CD235a+ cells were detected
same,"cells with markers of erythrocyte differentiation (CD71 and/or CD235a), of total cells",[1]; expanded 21 days in Formula I Condition,50%
same,cells positive for CD235a (maturing erythrocyte differentiation),"[1]; expanded 21 days in Formula I condition, day seven of Erythroid Differentiation Culture",46%
same,"cells with markers of erythrocyte differentiation (CD71 and/or CD235a), of total cells",[1]; expanded 63 days in Formula I Condition,75%
same,cells positive for CD235a (maturing erythrocyte differentiation),"[1]; expanded 63 days in Formula I condition, day seven of Erythroid Differentiation Culture",86%
same,"fold increase of per-expanded-day-1-CD34+ cell output, total megakaryocyte lineage, over uncultured cells","[2]; +Formula I expansion to day 21, then 10 days differentiation",18 fold
same,"fold increase of per-expanded-day-1-CD34+ cell output, total megakaryocyte lineage, over uncultured cells","[2]; +Formula I expansion to day 63, then 10 days differentiation","3,400 fold"
same,CD42b+ cells of CD41+ cells,"[2]; Formula I-expanded, either 21 or 63 days of prior Expansion Cell Culture, Megakaryocyte Differentiation Culture",approximately 50%
same,"CD56+ NK cells, of total live cells",CD56+ NK lineage cells; CD34+ cells first expanded for 14 days in +Formula I conditions,93%
same,% Mature cells: CD3−/CD19−/CD56+ of Live,CD56+ NK lineage cells; Lymphoid Diff day 21,91%
same,% Mature cells: CD16+ of Live/CD3−/CD19−/CD56+,CD56+ NK lineage cells; Lymphoid Diff day 21,31%
same,% Mature cells: CD94+ of Live/CD3−/CD19−/CD56+,CD56+ NK lineage cells; Lymphoid Diff day 21,7.8%
same,% Mature cells: CD161+ of Live/CD3−/CD19−,CD56+ NK lineage cells; Lymphoid Diff day 21,81%
same,% Mature cells: CD3−/CD19−/CD56+ of Live,CD56+ NK lineage cells; Lymphoid Diff day 28,95%
same,% Mature cells: CD16+ of Live/CD3−/CD19−/CD56+,CD56+ NK lineage cells; Lymphoid Diff day 28,16%
same,% Mature cells: CD94+ of Live/CD3−/CD19−/CD56+,CD56+ NK lineage cells; Lymphoid Diff day 28,3.5%
same,% Mature cells: CD161+ of Live/CD3−/CD19−,CD56+ NK lineage cells; Lymphoid Diff day 28,89%
